Measured values: patent publication US12048706B2, “Methods of treating epilepsy or status epilepticus” (Sage Therapeutics, Inc., priority 2012, dated 2024)
Read-outs that look alike come from different tables or passages of the source.

Columns and labels:
[1] = test system: patient in SRSE; experiment: Treatment of one patient in super-refractory status epilepticus (SRSE) with allopregnanolone infusion; assay type: in vivo, human
Description: A physician at the Massachusetts General Hospital, Boston, Mass. treated one patient in SRSE with allopregnanolone in a hydroxyl-propyl beta cyclodextrin formulation. The patient was a previously-healthy, person, college graduate who was started on allopregnanolone on their 92nd day of SRSE.
During their hospital course, the patient had previously been treated with propofol, midazolam, lacosamide, phenytoin, phenobarbital, ketamine, clonazepam, levetiracetam, valproate, pentobarbital, topiramate, steroids, pyridoxine, coq-10, lidocaine, electroconvulsive therapy (ECT), bromides, hypothermia, a ketogenic diet, and acupuncture.
(§1) At the time that allopregnanolone was started, the patient was still in a pentobarbital-induced coma as well as receiving lacosamide, phenobarbital, clonazepam, and levetiracetam. The patient was started on allopregnanolone at a continuous infusion rate of 86 μg/kg/h for 5 days, after which the allopregnanolone was rapidly tapered and discontinued over a 24-hour period. Plasma samples were drawn at 5 h, 29 h, 53 h, 77 h, 101 h, 125 h, 149 h, and 173 h and are shown on FIG. 2. The plasma level rose and by Day 2 had achieved the target level of 150 nmoles/L. The pentobarbital was tapered and discontinued over the first 36 hours of allopregnanolone therapy. […] They continued to improve and was conversant, making jokes, and in a rehabilitation facility as of April 2013.

[2] = Plasma exposure of allopregnanolone from human SE study; assay type: in vivo; conditions: by Day 2; continuous IV infusion 86 μg/kg/h; single SRSE patient
Protocol: FIG. 2. Plasma exposure of allopregnanolone from human SE study. Plasma concentration profile over time of allopregnanolone in a single patient. The patient was dosed allopregnanolone (ALLO) at 1.5 mg/mL in 6% hydroxypropyl-β-cyclodextrin in 0.9% sodium chloride intravenously for 5 days (120 h). The infusion rate was 86 μg/kg/h. The patient was dosed 5.6 mg/h of allopregnanolone at 3.8 mL/h. Plasma concentration was analyzed 2 hours prior to the start of infusion and then 52, 76, 100, 124, and 148 hours post-infusion.
as §1

[3] = test system: patients with status epilepticus; conditions: cited from earlier work

SMILES: CC(=O)[C@H]1CC[C@H]2[C@@H]3CC[C@H]4C[C@H](O)CC[C@]4(C)[C@H]3CC[C@]12C [allopregnanolone, 3 alpha-hydroxy-5 alpha-pregnan-20-one]
- adverse events attributed to allopregnanolone ([1]; 86 μg/kg/h for 5 days, then taper over 24 hours): no adverse events
- EEG ([1]; 36-hour time point, patient entirely weaned from pentobarbital, infusion 86 μg/kg/h): had begun to normalize
- clinical state of the patient ([1]; at 72 hours, infusion 86 μg/kg/h): awake and followed simple midline commands
- plasma level [2]: 150 nM

SMILES: O=C1Nc2ccc(Cl)cc2C(c2ccccc2Cl)=NC1O (stereo not drawn) [lorazepam]
- patients who did not respond to first line treatment ([3]; intravenous (IV) treatment): 36.6%

SMILES: Cc1ncc2n1-c1ccc(Cl)cc1C(c1ccccc1F)=NC2 [midazolam]
- patients who did not respond to first line treatment ([3]; intramuscular (IM) treatment): 26.6%
